In the supplement of paper PMC11061612:

Columns and labels:
[1] = tested on: 639-V (Bladder Carcinoma); assay: Bliss excess, mean over the matrix (fraction); higher = more synergy
Method in brief: (§1)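 Cell lines grown in DMEM/F12 or RPMI with 10% FBS were plated in 1536-well plates and held 24 hours at 37°C, 5% CO2 before 72 hours of exposure to two-drug dose matrices, with DMSO typically at 0.2%. CellTiter-Glo 2.0 luminescence gave viability, which was converted to inhibition. Vehicle wells were set to 0 and blank wells to 1. Combination Emax is the second-highest inhibition in the matrix, and Bliss excess is the observed combination effect minus the expected EA + EB − EA·EB, where EA and EB are the single-agent effects.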

[2] = tested on: 8305C (Thyroid Gland Carcinoma); assay: as above
Method in brief: as §1

COLO-829 (Melanoma) = assay: as above
Method in brief: as §1

[3] = tested on: EN (Endometrial Carcinoma); assay: as above
Method in brief: as §1

[4] = tested on: HARA (Squamous Cell Lung Carcinoma); assay: as above
Method in brief: as §1

[5] = tested on: HO-1-u-1 (Oral Cavity Carcinoma); assay: as above
Method in brief: as §1

[6] = tested on: KARPAS-231 (B-Cell Non-Hodgkin's Lymphoma); assay: as above
Method in brief: as §1

[7] = tested on: LB771-HNC (Head and Neck Carcinoma); assay: as above
Method in brief: as §1

[8] = tested on: LoVo (Colorectal Carcinoma); assay: as above
Method in brief: as §1

Mewo (Melanoma) = assay: as above
Method in brief: as §1

[9] = tested on: NCI-H69 (Small Cell Lung Carcinoma); assay: as above
Method in brief: as §1

[10] = tested on: OVCAR-8 (Ovarian Carcinoma); assay: as above
Method in brief: as §1

[11] = tested on: RKO (Colorectal Carcinoma); assay: as above
Method in brief: as §1

[12] = tested on: RT-112 (Bladder Carcinoma); assay: as above
Method in brief: as §1

[13] = tested on: SU-DHL-6 (B-Cell Non-Hodgkin's Lymphoma); assay: as above
Method in brief: as §1

[14] = tested on: HARA (Squamous Cell Lung Carcinoma); assay: combination Emax (second highest fraction inhibited in the dose matrix, 72 h); higher = more inhibition; extreme values may be limits of the assay
Method in brief: as §1

[15] = tested on: LoVo (Colorectal Carcinoma); assay: as above
Method in brief: as §1

NCI-H28 (Mesothelioma) = assay: as above
Method in brief: as §1

[16] = tested on: OC-314 (Ovarian Carcinoma); assay: as above
Method in brief: as §1
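Wherever Bliss excess, mean over the matrix is given: after 72 h of two-drug dosing.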

| SMILES | Bliss excess [1] | Bliss excess [2] | Bliss excess (COLO-829 (Melanoma)) | Bliss excess [3] | Bliss excess [4] | Bliss excess [5] | Bliss excess [6] | Bliss excess [7] | Bliss excess [8] | Bliss excess (Mewo (Melanoma)) | Bliss excess [9] | Bliss excess [10] | Bliss excess [11] | Bliss excess [12] | Bliss excess [13] | combination Emax [14] | combination Emax [15] | combination Emax (NCI-H28 (Mesothelioma)) | combination Emax [16] |
| --- | --- | --- | --- | --- | --- | --- | --- | --- | --- | --- | --- | --- | --- | --- | --- | --- | --- | --- | --- |
| Cc1nc(Nc2ncc(C(=O)Nc3c(C)cccc3Cl)s2)cc(N2CCN(CCO)CC2)n1 [Dasatinib] + CC(=O)Nc1cccc(-n2c(=O)n(C3CC3)c(=O)c3c(Nc4ccc(I)cc4F)n(C)c(=O)c(C)c32)c1 [Trametinib] (first compound max 2 µM, 7x7, partner max 1 µM) | -0.0398 | 0.0279 | -0.159 | -0.0056 | -0.0523 | -0.0219 | -0.0267 | -0.0363 | 0.104 | 0.0254 | -0.048 | 0.0396 | 0.119 | -0.0344 | 0.0272 | 0.531 | 0.801 | 0.721 | 0.781 |
| Cn1cnc2c(F)c(Nc3ccc(Br)cc3Cl)c(C(=O)NOCCO)cc21 [Selumetinib] + C=CCn1c(=O)c2cnc(Nc3ccc(N4CCN(C)CC4)cc3)nc2n1-c1cccc(C(C)(C)O)n1 [AZD1775] (first compound max 10 µM, partner max 1 µM) | -0.0207 | -0.0383 | -0.0734 | -0.126 | -0.0406 | 0.0454 | -0.0167 | -0.0937 | -0.0105 | -0.0304 | -0.0312 | 0.0202 | -0.0202 | -0.0352 | -0.0229 | 0.919 | 0.723 | 0.433 | 0.452 |
| CC(=O)c1c(C)c2cnc(Nc3ccc(N4CCNCC4)cn3)nc2n(C2CCCC2)c1=O [Palbociclib] + CC1(C)CCC(CN2CCN(c3ccc(C(=O)NS(=O)(=O)c4ccc(NCC5CCOCC5)c([N+](=O)[O-])c4)c(Oc4cnc5[nH]ccc5c4)c3)CC2)=C(c2ccc(Cl)cc2)C1 [Venetoclax] (first compound max 10 µM, 7x7, partner max 1 µM) | -0.0686 | -0.0306 | 0.0199 | -0.0405 | 0.0119 | -0.0121 | -0.103 | -0.0429 | -0.0178 | -0.0235 | -0.0624 | -0.0167 | -0.0498 | 0 | 0.0694 | 0.496 | 0.484 | 0.389 | 0.334 |
| CC(=O)c1c(C)c2cnc(Nc3ccc(N4CCNCC4)cn3)nc2n(C2CCCC2)c1=O [Palbociclib] + Cn1cnc2c(F)c(Nc3ccc(Br)cc3Cl)c(C(=O)NOCCO)cc21 [Selumetinib] (first compound max 10 µM, 7x7, partner max 10 µM) | -0.0833 | 0.0123 | -0.0772 | -0.0205 | 0.0219 | 0.0772 | -0.134 | -0.0893 | 0.0093 | -0.0844 | -0.0071 | -0.0412 | 0.082 | -0.0333 | 0.167 | 0.499 | 0.679 | 0.379 | 0.478 |
| NC1(C(=O)N[C@@H](CCO)c2ccc(Cl)cc2)CCN(c2ncnc3[nH]ccc23)CC1 [Capivasertib] + CCN(CCO)CCCOc1ccc2c(Nc3cc(CC(=O)Nc4cccc(F)c4)[nH]n3)ncnc2c1 [AZD2811] (first compound max 10 µM, 7x7, partner max 1 µM) | 0.0193 | 0.0022 | 0.0142 | -0.0464 | 0.0137 | -0.0122 | -0.111 | -0.0549 | -0.0387 | 0.0228 | 0.0132 | 0.001 | -0.0055 | -0.0152 | 0.0406 | 0.679 | 0.632 | 0.416 | 0.571 |
| CS(=O)(=O)CCNCc1ccc(-c2ccc3ncnc(Nc4ccc(OCc5cccc(F)c5)c(Cl)c4)c3c2)o1 [Lapatinib] + C[C@@H](Oc1cc(-c2cnn(C3CCNCC3)c2)cnc1N)c1c(Cl)ccc(F)c1Cl [Crizotinib] (first compound max 10 µM, 7x7, partner max 10 µM) | -0.0596 | -0.169 | -0.0345 | -0.0418 | -0.0259 | -0.0264 | 0.0324 | -0.0398 | -0.0217 | -0.032 | -0.0303 | -0.037 | -0.0977 | 0.0155 | -0.0299 | 0.95 | 0.708 | 0.622 | 0.881 |
| C=CCn1c(=O)c2cnc(Nc3ccc(N4CCN(C)CC4)cc3)nc2n1-c1cccc(C(C)(C)O)n1 [AZD1775] + C1CN(CCC1(C(=O)N[C@@H](CCO)C2=CC=C(C=C2)Cl)N)C3=NC=NC4=C3C=CN4 [Capivasertib] (first compound max 3 µM, partner max 3 µM) | -0.0541 | 0.0069 | 0.0335 | -0.0623 | -0.0002 | 0.037 | 0.0311 | -0.0581 | 0.0281 | -0.0433 | -0.0601 | -0.0167 | 0.0179 | -0.0348 | 0.0012 | 0.929 | 0.937 | 0.56 | 0.915 |
| COc1nnc2ccc(N3CCC(c4ccc(OCCN5CCN(C)C(=O)[C@H]5C)cc4)CC3)nn12 [AZD5153] + C[C@@H]1COCCN1C2=NC(=NC(=C2)C3(CC3)[S@](=N)(=O)C)C4=C5C=CNC5=NC=C4 [AZD6738] (first compound max 1 µM, 7x7, partner max 10 µM) | 0.0933 | -0.0088 | -0.0138 | 0.0191 | -0.0012 | -0.0146 | -0.0609 | 0.0467 | 0.0603 | -0.007 | 0.0358 | 0.0047 | -0.0442 | 0.0298 | -0.0505 | 0.832 | 0.814 | 0.659 | 0.981 |
| Cn1cnc2c(F)c(Nc3ccc(Br)cc3Cl)c(C(=O)NOCCO)cc21 [Selumetinib] + C[C@@H]1COCCN1C2=NC(=NC(=C2)C3(CC3)[S@](=N)(=O)C)C4=C5C=CNC5=NC=C4 [AZD6738] (first compound max 10 µM, 7x7, partner max 10 µM) | 0.0585 | -0.0238 | 0.102 | -0.0228 | -0.0115 | 0.014 | 0.0287 | -0.0532 | -0.0381 | -0.0236 | -0.0686 | -0.0197 | -0.0041 | -0.0088 | 0.0102 | 0.835 | 0.738 | 0.471 | 0.753 |
| Cn1cnc2c(F)c(Nc3ccc(Br)cc3Cl)c(C(=O)NOCCO)cc21 [Selumetinib] + CCN(CCO)CCCOc1ccc2c(Nc3cc(CC(=O)Nc4cccc(F)c4)[nH]n3)ncnc2c1 [AZD2811] (first compound max 10 µM, 7x7, partner max 1 µM) | -0.0438 | -0.0075 | -0.0341 | -0.0862 | 0.0522 | 0.0038 | -0.0043 | -0.0486 | 0.0139 | 0.0389 | -0.056 | 0.0121 | 0.088 | -0.0741 | 0.0923 | 0.409 | 0.445 | 0.352 | 0.425 |
| Cn1cnc2c(F)c(Nc3ccc(Br)cc3Cl)c(C(=O)NOCCO)cc21 [Selumetinib] + CC(C)n1c(=O)n(C)c2cnc3cc(F)c(-c4ccc(OCCCN5CCCCC5)nc4)cc3c21 [AZD1390] (first compound max 10 µM, 7x7, partner max 0.3 µM) | -0.0783 | -0.057 | -0.0578 | -0.0086 | -0.0159 | -0.0387 | -0.0101 | -0.067 | -0.0325 | -0.0086 | -0.0305 | -0.0254 | -0.0273 | -0.0217 | -0.0323 | 0.184 | 0.425 | 0.262 | 0.211 |
| COc1nnc2ccc(N3CCC(c4ccc(OCCN5CCN(C)C(=O)[C@H]5C)cc4)CC3)nn12 [AZD5153] + CC1(C)CCC(CN2CCN(c3ccc(C(=O)NS(=O)(=O)c4ccc(NCC5CCOCC5)c([N+](=O)[O-])c4)c(Oc4cnc5[nH]ccc5c4)c3)CC2)=C(c2ccc(Cl)cc2)C1 [Venetoclax] (first compound max 1 µM, 7x7, partner max 1 µM) | -0.0962 | -0.0901 | -0.0356 | -0.0567 | -0.0617 | -0.0352 | -0.135 | -0.0704 | -0.0378 | -0.0605 | -0.0445 | 0.0035 | 0.0122 | -0.0479 | 0.0401 | 0.654 | 0.464 | 0.487 | 0.814 |
| COc1nnc2ccc(N3CCC(c4ccc(OCCN5CCN(C)C(=O)[C@H]5C)cc4)CC3)nn12 [AZD5153] + Cc1c2c(nn1C)CSCc1cc(n(C)n1)CSc1cc(c3ccccc3c1)OCCCc1c(C(=O)O)n(C)c3c-2c(Cl)ccc13 [AZD5991] (first compound max 1 µM, 7x7, partner max 1 µM) | -0.0552 | -0.0922 | -0.0168 | 0.0144 | -0.0142 | -0.0055 | -0.128 | 0.0475 | -0.0383 | -0.0453 | -0.0507 | 0.0205 | -0.0293 | 0.0039 | -0.0326 | 0.741 | 0.545 | 0.465 | 0.842 |
| C[C@@H](c1ccc2nccn2c1)n1nnc2ncc(-c3cnn(C)c3)nc21 [Savolitinib] + Cc1c2c(nn1C)CSCc1cc(n(C)n1)CSc1cc(c3ccccc3c1)OCCCc1c(C(=O)O)n(C)c3c-2c(Cl)ccc13 [AZD5991] (first compound max 1 µM, 7x7, partner max 1 µM) | -0.111 | -0.0781 | -0.0075 | -0.0027 | -0.0353 | -0.034 | -0.0258 | -0.054 | -0.0331 | -0.0237 | -0.0269 | -0.0327 | -0.0067 | -0.0265 | -0.013 | 0.236 | 0.195 | 0.155 | 0.163 |
| COc1cc2ncnc(Nc3ccc(F)c(Cl)c3)c2cc1OCCCN1CCOCC1 [Gefitinib] + CC(C)n1c(=O)n(C)c2cnc3cc(F)c(-c4ccc(OCCCN5CCCCC5)nc4)cc3c21 [AZD1390] (first compound max 10 µM, 7x7, partner max 0.3 µM) | -0.0765 | -0.147 | -0.0599 | -0.0318 | -0.0343 | -0.0212 | -0.0423 | -0.0648 | -0.0418 | -0.0712 | -0.0122 | -0.0633 | -0.0362 | -0.0548 | 0.0167 | 0.298 | 0.421 | 0.346 | 0.255 |
